Results published in patent US20120252792A1, “METHODS AND COMPOSITIONS FOR MODULATING RHO-MEDIATED GENE TRANSCRIPTION” (THE REGENTS OF THE UNIVERSITY OF MICHIGAN, priority 2009, published 2012).
pIC50: −log10 of the molar value.

Legend:
[1] = system: Rho/MKL1 pathway; assay: SRE.L-firefly luciferase reporter (dual luciferase assay), Gα12QL-transfected PC-3 cells; assay type: cell-based, human; conditions: Homo sapiens; for inhibition at 10 µM / inhibition at 100 µM: DMSO alone = 0%; for inhibition at 10 µM: read-out: % inh SRE.L (10 μM); for inhibition at 100 µM: read-out: % inh SRE.L (100 μM)
Experimental: Dual Luciferase Assay: Seed PC-3 prostate cancer cells (40,000 cells/well) were grown in 96-well plates in 10% FBS containing DMEM medium. Cells were transiently transfected with the Gα12QL activator of the Rho/MKL1 pathway, along with the SRE.L-firefly luciferase reporter construct for 6 hours. Additionally, cells were co-transfected with the TK-Renilla luciferase reporter as an indicator of non-specific compound effects. Various concentrations of selected compounds were added to the 96-well plates. Plates were incubated for 19 hours at 37° C. and 5% CO2 in 0.5% FBS containing DMEM medium. Cells were lysed with 1X Passive Lysis Buffer (Promega). Plates were incubated for 30 minutes at room temperature. Luminescence counts were read with a Victor2 (Perkin-Elmer) plate reader.

[2] = system: PC-3 prostate cancer cells; assay: WST1 cell viability assay; assay type: cell-based, human; conditions: Homo sapiens, PC-3 cells, just before lysis; for inhibition at 10 µM: PC-3, 10 μM, read-out: % inh WST-1 (10 μM); for inhibition at 100 µM: PC-3, 100 μM, read-out: % inh WST-1 (100 μM)
Experimental: WST1 Cell Viability Assay: One hour prior to cell lysis for the dual luciferase assay, 10 μl per well of WST1 reagent (Roche) was added to the 96-well plates. Plates were incubated for 1 hour at 37° C. and 5% CO2. Cell viability was measured by WST1 absorbance at 450 nm with a Victor2 (Perkin-Elmer) plate reader.

Structure (SMILES)	inhibition at 10 µM ([1]; 19 h) [%]	inhibition at 100 µM ([1]; 19 h) [%]	inhibition at 10 µM [2] [%]	inhibition at 100 µM [2] [%]	pIC50 ([1]; 19 h)	pIC50 ([1]; 19 hrs)
O=C(Nc1cc(C(F)(F)F)cc(C(F)(F)F)c1)C1CC(=O)N(c2ccc(Cl)cc2)C1 (centres unmarked) [Compound 51, N-(3,5-bis(trifluoromethyl)phenyl)-1-(4-chlorophenyl)-5-oxopyrrolidine-3-carboxamide]	74.3	99.2	55.9	74.6		
O=C(c1cc(C(F)(F)F)cc(C(F)(F)F)c1)N1CCC(=O)N(c2ccc(Cl)cc2)CC1 [Compound 24, 1-(3,5-bis(trifluoromethyl)benzoyl)-4-(4-chlorophenyl)-1,4-diazepan-5-one]		30			< 4.00	
O=C(NCCCNc1ccc(Cl)nc1)c1cc(C(F)(F)F)cc(C(F)(F)F)c1 [Compound 42, N-(3-((6-chloropyridin-3-yl)amino)propyl)-3,5-bis(trifluoromethyl)benzamide]	-1.7	95.1	-7.4	64.7	4.61	
O=C(c1cc(C(F)(F)F)cc(C(F)(F)F)c1)N1CCCC(CNc2ccc(Cl)cc2)C1 (centres unmarked) [Compound 56]	11.5	8.3	24.8	22.4		
FC(F)(F)c1cc(CN2CCCC(CNc3ccc(Cl)cc3)C2)cc(C(F)(F)F)c1 (centres unmarked) [Compound 50, N-((1-(3,5-bis(trifluoromethyl)benzyl)piperidin-3-yl)methyl)-4-chloroaniline]	0.9	70.2	20.9	32.2		
COc1ccc(NC(=O)CONC(=O)c2cc(C(F)(F)F)cc(C(F)(F)F)c2)cc1Cl [Compound 9, N-(2-(3-chloro-4-methoxyphenylamino)-2-oxoethoxy)-3,5-bis(trifluoromethyl)benzamide]					4.94	
O=C(NCC1CCN(c2ccc(Cl)cc2)C1=O)c1cc(C(F)(F)F)cc(C(F)(F)F)c1 (centres unmarked) [Compound 53, N-((1-(4-chlorophenyl)-2-oxopyrrolidin-3-yl)methyl)-3,5-bis(trifluoromethyl)benzamide]	14.1	32.3	7.9	26.9		
O=C(NC1CC(=O)N(c2ccc(Cl)cc2)C1)c1cc(C(F)(F)F)cc(C(F)(F)F)c1 (centres unmarked) [Compound 47, N-(1-(4-chlorophenyl)-5-oxopyrrolidin-3-yl)-3,5-bis(trifluoromethyl)benzamide]	18	57.8	-0.8	14.3	4.74	
COc1ccc(NCCCNC(=O)c2cc(C(F)(F)F)cc(C(F)(F)F)c2)cc1Cl [Compound 20, N-(3-(3-chloro-4-methoxyphenylamino)propyl)-3,5-bis(trifluoromethyl)benzamide]					5.00	
COc1ccc(NC(=O)C2CCCN(C(=O)c3cc(C(F)(F)F)cc(C(F)(F)F)c3)C2)cc1Cl (centres unmarked) [Compound 12, 1-(3,5-bis(trifluoromethyl)benzoyl)-N-(3-chloro-4-methoxyphenyl)piperidine-3-carboxamide]					5.22	
COc1cc(NCCCNC(=O)c2cc(C(F)(F)F)cc(C(F)(F)F)c2)ccc1Cl [Compound 21, N-(3-(4-chloro-3-methoxyphenylamino)propyl)-3,5-bis(trifluoromethyl)benzamide]					5.14	
CN(C(=O)CONC(=O)c1cc(C(F)(F)F)cc(C(F)(F)F)c1)c1ccc(Cl)cc1 [Compound 11, N-(2-((4-chlorophenyl)(methyl)amino)-2-oxoethoxy)-3,5-bis(trifluoromethyl)benzamide]					3.95	
O=C(NCCCNc1ccc(Cl)cn1)c1cc(C(F)(F)F)cc(C(F)(F)F)c1 [Compound 44, N-(3-((5-chloropyridin-2-yl)amino)propyl)-3,5-bis(trifluoromethyl)benzamide]	20.5	82.9	17.6	39.4	3.18	
O=C(Nc1ccc(Cl)cc1)C1CCCN(C(=O)c2cc(C(F)(F)F)cc(C(F)(F)F)c2)C1 (centres unmarked) [Compound 4, 1-(3,5-bis(trifluoromethyl)benzoyl)-N-(4-chlorophenyl)piperidine-3-carboxamide]			0	14		
O=C(NC1CC(=O)N(c2ccc(Cl)cc2)C1)OCc1cc(F)cc(F)c1 (centres unmarked) [Compound 46, 3,5-difluorobenzyl (1-(4-chlorophenyl)-5-oxopyrrolidin-3-yl)carbamate]	13.7	76.1	0.1	67.5		
O=C(CCc1cn(-c2cc(C(F)(F)F)cc(C(F)(F)F)c2)nn1)Nc1ccc(Cl)cc1 [Compound 40]					< 4.00	

Structure (SMILES)	inhibition at 10 µM ([1]; 19 h) [%]	inhibition at 100 µM ([1]; 19 h) [%]	inhibition at 10 µM [2] [%]	inhibition at 100 µM [2] [%]	pIC50 ([1]; 19 h)	pIC50 ([1]; 19 hrs)
COc1ccc(N2CC(NC(=O)c3cc(C(F)(F)F)cc(C(F)(F)F)c3)CC2=O)cc1Cl (centres unmarked) [Compound 55, N-(1-(3-chloro-4-methoxyphenyl)-5-oxopyrrolidin-3-yl)-3,5-bis(trifluoromethyl)benzamide]	4.5	26	7.4	23.9		
COc1cc(N2CC(NC(=O)c3cc(C(F)(F)F)cc(C(F)(F)F)c3)CC2=O)ccc1Cl (centres unmarked) [Compound 52, N-(1-(4-chloro-3-methoxyphenyl)-5-oxopyrrolidin-3-yl)-3,5-bis(trifluoromethyl)benzamide]	-18.4	16.9	-0.3	42.2		
O=C(NCCCNc1ccc(Cl)cc1)c1cc(F)cc(F)c1 [Compound 43, N-(3-((4-chlorophenyl)amino)propyl)-3,5-difluorobenzamide]	-6.5	95.7	-9.9	73	4.46	
COc1ccc(NC(=O)CCNC(=O)c2cc(C(F)(F)F)cc(C(F)(F)F)c2)cc1Cl [Compound 13, N-(3-(3-chloro-4-methoxyphenylamino)-3-oxopropyl)-3,5-bis(trifluoromethyl)benzamide]					3.85	
O=C(NC1CC(=O)N(c2ccc(Cl)cc2)C1)OCc1cc(C(F)(F)F)cc(C(F)(F)F)c1 (centres unmarked) [Compound 45, 3,5-bis(trifluoromethyl)benzyl (1-(4-chlorophenyl)-5-oxopyrrolidin-3-yl)carbamate]	9.4	68	0.6	8.4	4.87	
O=C1Nc2ccc(Cl)cc2C1=CNC(=O)c1cc(C(F)(F)F)cc(C(F)(F)F)c1 [Compound 54, N-((5-chloro-2-oxoindolin-3-ylidene)methyl)-3,5-bis(trifluoromethyl)benzamide]	6.5	12.2	10.6	17.7		
O=C1CC(NC(=O)c2cc(C(F)(F)F)cc(C(F)(F)F)c2)c2cc(Cl)ccc2N1 (centres unmarked) [Compound 48, N-(6-chloro-2-oxo-1,2,3,4-tetrahydroquinolin-4-yl)-3,5-bis(trifluoromethyl)benzamide]	4.9	2.5	4.3	-2.7		
O=C(NC1CC(=O)N(c2ccc(Cl)cc2)C1)c1cc(F)cc(F)c1 (centres unmarked) [Compound 49, N-(1-(4-chlorophenyl)-5-oxopyrrolidin-3-yl)-3,5-difluorobenzamide]	-8.4	13.4	-6.1	0.6		
O=C(NCCc1cn(-c2ccc(Cl)cc2)nn1)c1cc(C(F)(F)F)cc(C(F)(F)F)c1 [Compound 41]					< 4.00	
O=C(CCNC(=O)c1cc(C(F)(F)F)cc(C(F)(F)F)c1)NCc1ccc(Cl)cc1 [Compound 25, N-(3-(4-chlorobenzylamino)-3-oxopropyl)-3,5-bis(trifluoromethyl)benzamide]					5.30	
CC(C)(C)OC(=O)NC1CCN(c2ccc(Cl)cc2)C1 (centres unmarked) [Compound 57, tert-butyl (1-(4-chlorophenyl)pyrrolidin-3-yl)carbamate]	-44.4	18.7	9.2	21.1		
O=C(NC1CCN(c2ccc(Cl)cc2)C1)c1cc(C(F)(F)F)cc(C(F)(F)F)c1 (centres unmarked) [Compound 58, N-(1-(4-chlorophenyl)pyrrolidin-3-yl)-3,5-bis(trifluoromethyl)benzamide]	-4.6	10.5	-10.5	-1.7		
O=C(N[C@@H]1CCC[C@@H]1C(=O)Nc1ccc(Cl)cc1)c1cc(C(F)(F)F)cc(C(F)(F)F)c1 [Compound 39]					< 4.00	
O=C(c1cc(C(F)(F)F)cc(C(F)(F)F)c1)N1CCC(Nc2ccc(Cl)cc2)CC1 [Compound 17, (3,5-bis(trifluoromethyl)phenyl)(4-(4-chlorophenylamino)piperidin-1-yl)methanone]						4.97
O=C(NC1CC(=O)N(c2ccc(Cl)cc2)C1)OCc1ccccc1 (centres unmarked) [Compound 31, Benzyl 1-(4-chlorophenyl)-5-oxopyrrolidin-3-ylcarbamate]					4.26	
